Source: PubChem BioAssay AID1259321 (Sanford-Burnham Center for Chemical Genomics, 2017)
Active and inactive are the calls of the source.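 The calls were made as follows: active = half-maximal concentration for changing protein binding to DNA, from the fitted dose curve, below 10 micromolar; inactive = the rest.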

target: Nuclear receptor subfamily 1 group D member 1 (Homo sapiens) (UniProt P20393); assay: Rev-erbα–DNA interaction modulators – biochemical, FITC-DNA, fluorescence polarization, dose response (AID 1259321); conditions: Rev-erb alpha-FITC-DNA binding
Sequence (P20393 whole entry, looked up): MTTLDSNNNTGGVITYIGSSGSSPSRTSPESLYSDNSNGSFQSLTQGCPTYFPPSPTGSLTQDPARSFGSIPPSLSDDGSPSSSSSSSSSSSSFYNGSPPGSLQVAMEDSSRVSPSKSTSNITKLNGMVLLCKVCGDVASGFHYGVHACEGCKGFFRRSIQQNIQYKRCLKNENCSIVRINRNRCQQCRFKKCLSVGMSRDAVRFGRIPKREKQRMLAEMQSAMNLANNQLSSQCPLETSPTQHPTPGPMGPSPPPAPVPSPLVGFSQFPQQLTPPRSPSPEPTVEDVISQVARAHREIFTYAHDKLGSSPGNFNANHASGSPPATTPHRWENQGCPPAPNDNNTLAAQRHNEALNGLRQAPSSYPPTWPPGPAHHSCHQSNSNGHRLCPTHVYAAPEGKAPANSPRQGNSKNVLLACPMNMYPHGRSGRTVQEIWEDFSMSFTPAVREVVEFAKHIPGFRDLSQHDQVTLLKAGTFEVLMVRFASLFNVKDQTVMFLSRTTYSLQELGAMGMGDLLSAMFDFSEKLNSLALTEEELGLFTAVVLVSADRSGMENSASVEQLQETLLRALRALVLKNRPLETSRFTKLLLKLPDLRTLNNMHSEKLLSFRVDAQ

Row | SMILES | IC50
1 | O=C(CCCOc1ccc(Cl)cc1Cl)NNC(=O)c1ccc(NC(=O)c2ccccc2)cc1 | 5.81 µM
2 | N#Cc1ccsc1NC(=O)COC(=O)c1cc(Br)ccc1O | inactive
3 | CCc1ccc(-c2nc(NC(=O)c3ccc(OCC(=O)Nc4ccc(F)cc4)c(OC)c3)sc2C)cc1 | 9.3 µM
4 | COc1cccc(-n2c([S-])c(C(=O)Nc3ccc(S(=O)(=O)N4CCOCC4)cc3)[n+]3cc(C(N)=O)ccc23)c1 | > 40 µM (inactive)
5 | C=CCc1cccc(C2Nc3ccccc3C(=O)N2O)c1O (configuration not stated) | 7.11 µM
6 | CCc1cc2cc3c(cc2nc1SCC(=O)Nc1c[nH]c(=O)[nH]c1=O)OCO3 | 2.22 µM
7 | C=CCn1c(=NC(=O)c2ccco2)sc2cc(C(=O)OC)ccc21 | inactive
8 | C=CCn1c(SCC(=O)Nc2cc(C)on2)nc2sc(C)c(C)c2c1=O | 5.14 µM
9 | COc1ccc(NC(=O)NNC(=O)COc2ccc3cc(Br)ccc3c2)cc1OC | 8.29 µM
10 | Cc1ccccc1C(=O)N=c1ccn(-c2nc3ccccc3nc2NS(=O)(=O)c2ccc(F)cc2)cc1 | 5.69 µM
11 | CCN1/C(=C\c2ccc3ccccc3[n+]2CC)Sc2cc(C)ccc21 | 2.67 µM
12 | CC1(C)Cc2c(c(N3CCOCC3)nc3sc4c(NN)ncnc4c23)CS1 | > 40 µM (inactive)
13 | C=CCn1c(C)c(/C=C/c2cc[n+](C)cc2)c2ccccc21 | 9.96 µM
14 | Cn1c(=O)c(NCCO)c2c3c(cccc31)C(=O)c1ccccc1-2 | 3.63 µM
15 | O=C(CSc1ncnc2c1oc1ccccc12)Nc1ccccc1F | 7.81 µM
16 | CCOc1ccc(-n2c([S-])c(C(=O)Nc3ccc(S(=O)(=O)N4CCOCC4)cc3)[n+]3cc(C(N)=O)ccc23)cc1 | inactive
17 | O=C(CSc1ncnc2c1oc1ccccc12)Nc1cccc(F)c1 | 2.51 µM
18 | Brc1ccc2ncc(Br)cc2c1 | 4.22 µM
19 | O=C(CCc1c[nH]c2ccccc12)NCCc1ccc(Cl)cc1 | > 40 µM (inactive)
20 | CS(=O)(=O)Nc1ccc(-c2ccc(/C=C3\SC(N)=NC3=O)o2)cc1 | 8.42 µM
21 | Cc1ccc2c(c1)c(/C=C/c1cc[n+](C)cc1)c(C)n2C | > 40 µM (inactive)
22 | Cc1ccc2[nH]c(=O)c(CN(C(=O)c3cccs3)c3ccccc3)cc2c1 | 3.81 µM
23 | O=C(COc1nc2ccccc2nc1N1CCOCC1)N1CCc2ccccc21 | > 40 µM (inactive)
24 | COc1ccc(NC(=O)NNC(=O)COc2ccc3cc(Br)ccc3c2)c(OC)c1 | > 40 µM (inactive)
25 | O=C1c2cccc3c(N4CCCCC4)ccc(c23)C(=O)N1c1cccc(O)c1 | > 40 µM (inactive)
26 | Cc1cc(C)c2cc(C#N)c(SCC(=O)Nc3ccc4c(c3)OCO4)nc2c1 | 7.14 µM

Row | SMILES | IC50
27 | COc1ccc(OC)c(Nc2nc(-c3ccccc3O)nc3ccccc23)c1 | 9.61 µM
28 | COc1ccccc1-c1ccc2c(c1)C(C)(Cc1ccccc1C#N)C(=O)N2 (configuration not stated) | 7.13 µM
29 | COc1ccc(CNC(=O)CCCn2c(=S)[nH]c3cc4c(cc3c2=O)OCO4)cc1 | 6.11 µM
30 | Cn1c(N)c(C(=O)CSc2nn(-c3ccc(F)cc3)c(=S)s2)c(=O)n(C)c1=O | > 40 µM (inactive)
31 | COc1cc(C=Cc2nnc3c4ccccc4cnn23)cc(OC)c1OC | inactive
32 | Cc1ccc(C(=O)Nc2cccc(C(F)(F)F)c2)cc1NC(=O)c1nccn1C | 6.88 µM
33 | COc1cc2c3nnc(-c4ccc(F)cc4)c-3cn(Cc3ccccc3)c2cc1OC | inactive
34 | O=C(OCCN1C(=O)c2cccc3c(N4CCOCC4)ccc(c23)C1=O)c1ccc(Cl)cc1 | 5.07 µM
35 | O=C(Nc1nc(-c2cccs2)c(-c2cccs2)s1)C1CCCC1 | 2.86 µM
36 | Cc1ccccc1NC(=O)c1sc(NC(=O)COc2ccccc2)c(C#N)c1C | > 40 µM (inactive)
37 | O=c1c2ccccc2nc2sc(Nc3ccc(F)cc3)nn12 | inactive
38 | CCN(CC)C(=O)CSC1=C(C#N)C(c2cccs2)C=C(C)N1 (configuration not stated) | inactive
39 | CCCOc1ccc(/C(CC)=N/NC(=O)C2(C)CC2(Br)Br)cc1 (configuration not stated) | inactive
40 | COc1ccccc1N/C(N)=N/c1nc(CSc2ccc(C)cc2)cc(=O)[nH]1 | 4.19 µM
41 | CCCCCCCn1c(=O)c(C(=O)Nc2cnccn2)c(O)c2ccccc21 | inactive
42 | COC(=O)c1ccc(NC(=O)c2ccc3c(c2)C(=O)N(C)C3=O)cc1 | 4.43 µM
43 | COc1ccc(-c2cc(C(=O)Nc3cccnc3Cl)no2)cc1OC | 1.92 µM
44 | O=C(COc1ccccc1)Nc1nc2cc3c(cc2s1)OCCO3 | 4.3 µM
45 | CCOCCCn1c(=S)[nH]c2cc(C(=O)NCCc3ccccc3)ccc2c1=O | 3.56 µM
46 | COc1ccc2c(c1)oc(=O)c1c3ccccc3[nH]c21 | > 40 µM (inactive)
47 | CC1(Cc2ccccc2Cl)C(=O)Nc2ccc(OC(F)(F)F)cc21 (configuration not stated) | 6.25 µM
48 | Cc1nc(N2CCC(C)CC2)c2c(C)c(C(=O)Nc3ccc(C)c(F)c3)sc2n1 | > 40 µM (inactive)
49 | COc1cc2c(cc1OC)-c1cc3ccc4c(c3c[n+]1CC2)OCO4 | inactive
50 | O=C(c1cc2cc(Br)ccc2[nH]1)N1CCc2ccccc21 | 9.54 µM
51 | CCN1C(=O)CSC1=NC1C2CC3CC(C2)CC1C3 (configuration not stated) | 4.66 µM
52 | O=C(Nc1nnc(SCc2ccccc2)s1)c1cc2c(s1)CCCC2 | 2.33 µM

Row | SMILES | IC50
53 | CCc1cc2cc3c(cc2nc1SCC(=O)Nc1cc(C)on1)OCO3 | 3.31 µM
54 | c1ccc(N(c2ccccc2)c2nc(N3CCCC3)nc(-n3ccnc3)n2)cc1 | 1.14 µM
55 | N#Cc1c(N)nc2c3c(sc(=N)c2c1N)NC(=O)CC3c1c(F)cccc1Cl (configuration not stated) | 0.78 µM
56 | COC(=O)c1cccc(Cn2ccc3ccc(-c4ccc5ccn(C(=O)c6cccc(OC)c6)c5c4)cc32)c1 | > 40 µM (inactive)
57 | CCCN1C(=O)S/C(=C/c2ccc(N3CCOCC3)o2)C1=O | 5.84 µM
58 | CCC(=O)c1ccc(OCc2ccc(C(=O)c3ccccc3)cc2)cc1 | 3.02 µM
59 | N#Cc1cccc(Cn2ccc3ccc(-c4ccc5ccn(Cc6cccc(C#N)c6)c5c4)cc32)c1 | 0.544 µM
60 | N#Cc1cnc2cc(-c3ccccc3)nn2c1N | 3.52 µM
61 | C=CCn1c(SCCNC(C)=O)nc2cc(-c3ccccc3)sc2c1=O | inactive
62 | CCc1cc2cc3c(cc2nc1SCC(=O)Nc1nnc(C)s1)OCCO3 | 5.32 µM
63 | CCN1C(=O)/C(=C/C=C2/SCCN2C)SC1=S | inactive
64 | CN(c1ccc(O)cc1)c1ccc([N+](=O)[O-])c2nonc12 | 6 µM
65 | Cc1n[nH]c(C)c1N1C(=O)c2cccc3c(N4CCCCCC4)ccc(c23)C1=O | 3.61 µM
66 | COC(=O)c1ccc(NC(=O)c2cc(Cl)ccc2OC)cc1 | inactive
67 | O=C(CSc1ncnc2c1sc1ccccc12)Nc1ccc(Br)cc1 | 2.97 µM
68 | Cc1ccc(NC(=O)CSc2nc3ncc(Br)cc3[nH]2)cc1C | > 40 µM (inactive)
69 | Cc1cc(Br)ccc1NC(=O)c1sc2ncn(CC(=O)N3CCN(c4ccccn4)CC3)c(=O)c2c1C | 5.34 µM
70 | CCN(CC)c1ccc(/C=C2\C(=O)NC(=S)N(C)C2=O)o1 | 4.36 µM
71 | Nc1c2c(nc3ccccc13)CCN(Cc1ccccc1)C2 | inactive
72 | Cc1cccc(N2C(=O)c3cccc4c(N)ccc(c34)C2=O)c1 | 6.19 µM
73 | COc1ccc2cc(C)c(SCC(=O)Nc3cc(C)on3)nc2c1 | > 40 µM (inactive)
74 | O=C(NCc1ccccc1)C(c1cccc2ccccc12)n1c(=O)c(-c2ccccc2)nc2ccccc21 (configuration not stated) | 1.61 µM
75 | Cc1coc2cc3oc(=O)c(Cc4ccccc4)c(C)c3cc12 | inactive
76 | COCCn1c(=NC(=O)c2nc3ccccc3s2)sc2cc(S(C)(=O)=O)ccc21 | 4.6 µM
77 | Cc1ccc(Sc2cnc3ccccc3n2)cc1 | inactive
